Measured values: PMC11184554, “Nature-Inspired Gallinamides Are Potent Antischistosomal Agents: Inhibition of the Cathepsin B1 Protease Target and Binding Mode Analysis” (ACS Infectious Diseases, 2024)
Values joined by “and” are separate entries in the source; they are usually repeats but may differ in a detail not shown here. Identical values can stand only once.

Tests used:
[1] = tested on: cathepsins B and L (SmCatB/L); assay: Protease activity in extracts of adult worms treated with gallinamides, Cbz–Phe–Arg–AMC; assay type: cell-based, S. mansoni; settings: adult worms incubated with 5 μM compound for 24 h (Figure 2 legend: 48 h); extract assayed with Cbz–Phe–Arg–AMC at pH 5.5
Procedure: (§1) Adult mixed sex S. mansoni were incubated in the presence of 5 μM gallinamide A, 1, 6, or 9 for 24 h, and protein extracts therefrom were assayed with the cathepsins B and L substrate, Cbz–Phe–Arg–AMC. Protease activity was reduced by ∼95% relative to the activity of untreated controls (Figure 2A). For comparison, we also quantified the activity of the nondigestive proteolytic enzyme, S. mansoni prolyl oligopeptidase (SmPOP). This serine protease, which is localized in the tegument of adult worms, was assayed with the selective substrate Cbz–Gly–Pro–AMC.[44] SmPOP was unaffected by the gallinamide treatment.
(§2) Figure 2 SmCB1 is a target for gallinamides in adult S. mansoni. (A) Mixed sex, adult S. mansoni were incubated for 48 h with 5 μM gallinamide A or 1, 6, and 9. After washing and preparation of worm extract, proteolytic activities (0.2 μg of protein) were measured in a kinetic assay using the cathepsin B and L substrate, Cbz–Phe–Arg–AMC (SmCatB/L, gray bars) at pH 5.5 or the prolyl oligopeptidase substrate, Cbz–Gly–Pro–AMC (SmPOP, white bars) at pH 8.0. Means ± SE of three replicates are normalized to the control not exposed to the inhibitor (set as 100%). (B–D) Imaging of SmCB1 using the gallinamide compound 5 as an activity-based probe. 5 contains an alkyne tag that can be modified by a copper-catalyzed click reaction with a fluorescent reagent (Alexa Fluor 647-azide) (B). Recombinant SmCB1 (rSmCB1, 0.5 μg) (C) or extracts of adult S. mansoni worms (7 μg of protein) (D) were incubated with 5 (10 μM) for 1 h and then clicked. Reactions were resolved by SDS-PAGE, and gels were visualized using a fluorescence scanner (Probe), stained for protein using Coomassie Brilliant Blue (CBB), or analyzed by Western blot with an anti-SmCB1 antibody (WB). In a control experiment, rSmCB1 or worm extract was treated with the […] protease inhibitor E-64 (10 μM), prior to incubation with 5. The positions of rSmCB1, native SmCB1, and its pro-form (pro-SmCB1) are indicated. The mass difference between rSmCB1 and native SmCB1 is caused by glycosylation (see Methods). The active site of the pro-SmCB1 is shielded by a propeptide[45] that prevents effective binding of 5. […]
(§3) Proteolytic activities in S. mansoni adult extracts were measured in a continuous kinetic assay using the following peptidyl fluorogenic substrates (Bachem) or internally quenched FRET substrates (IOCB): 50 μM Cbz–Phe–Arg–AMC for cathepsins B and L,[13],[15] […] Substrate hydrolysis was measured continuously using an Infinite M1000 microplate reader (Tecan) at excitation and emission wavelengths of 360/465 nm for AMC substrates and 320/420 nm for FRET substrates. […]

[2] = tested on: S. mansoni prolyl oligopeptidase (SmPOP); assay: Protease activity in extracts of adult worms treated with gallinamides, Cbz–Gly–Pro–AMC; assay type: cell-based; settings: adult worms incubated with 5 μM compound for 24 h (Figure 2 legend: 48 h); extract assayed with Cbz–Gly–Pro–AMC at pH 8.0
Procedure: as §1, §2, §3

[3] = tested on: recombinant SmCB1; assay: Kinetic inhibition assay with recombinant SmCB1 (k2nd); assay type: biochemical, S. mansoni; settings: for decrease in inhibitory potency vs gallinamide A: ratio of k2nd values; for SmCB1 inhibition k2nd: second-order rate constant (kinact/Ki), substrate Cbz–Phe–Arg–AMC, pH 5.5, 37 °C, mean ± SE
Procedure: Gallinamide A and a series of its 18 derivatives were evaluated in vitro as inhibitors of SmCB1 to explore the binding specificities of the subsites in the enzyme’s active site. The gallinamide A inhibitor scaffold can be defined by positions P4 through P1′ (Schechter and Berger nomenclature[37]), which were assigned according to the binding mode analysis (see the crystallographic section below). The substituents R4, R1, and R1′ introduced on the scaffold (Table 2) are numbered according to the respective positions P4, P1, and P1′. The compounds’ second-order rate constants (k2nd) were determined using a kinetic inhibition assay with recombinant SmCB1 and the substrate, Cbz–Phe–Arg–AMC.
Inhibition measurements were performed in duplicate in 96-well microplates (100 μL assay volume) at 37 °C. SmCB1 (40 pM) was added to a mixture of the fluorogenic substrate Cbz–Phe–Arg–AMC (25 μM) and an inhibitor (0–100 μM) in 0.1 M sodium acetate, pH 5.5, containing 2.5 mM dithiothreitol and 0.01% (w/v) BRIJ 35. Substrate hydrolysis was monitored in an Infinite M1000 microplate reader (Tecan) at excitation and emission wavelengths of 360 and 465 nm, respectively, for up to 150 min. An observed first-order rate constant, kobs, was calculated at each inhibitor concentration by fitting the progress curve to the equation P = vi/kobs(1 – exp(−kobst)) + d where P is the product formation, t is the reaction time, vi is the initial velocity, and d is the offset. […] The second-order rate constant, k2nd, (and SE value) was determined by fitting the linear equation kobs = (k2nd[I])/(1 + [S]/Km), where [S] is the substrate concentration, [I] is the inhibitor concentration, and KM is the Michaelis–Menten constant. The KM value determined for SmCB1 was 25 μM. […] To determine IC50 values, SmCB1 (40 pM) was preincubated with the inhibitor (0–100 μM) for 30 min under assay conditions as described above, followed by the addition of the fluorogenic substrate Cbz–Phe–Arg–AMC (20 μM). Substrate hydrolysis was monitored for 30 min in a microplate reader as described above. The IC50 values were determined by nonlinear regression using GraFit software (Erithacus Software).

CCC(C)C(C(=O)OC(CC(C)C)C(=O)NC(CC(C)C)C(=O)NC(C)C=CC(=O)N1C(=O)C=C(OC)C1CC(C)C)N(C)C (stereo not drawn) [compound 1]
protease activity reduced relative to untreated controls [1]: ~95%
SmPOP activity after gallinamide treatment [2]: unaffected
decrease in inhibitory potency vs gallinamide A [3]: 2 fold
SmCB1 inhibition k2nd [3]: 3394 ± 133 M^–1·s^–1
SmCB1 inhibition k2nd ([3]; listed as Cpd.1): 3394 M^–1·s^–1

COC1=CC(=O)N(C(=O)/C=C/[C@H](C)NC(=O)[C@H](CC(C)C)NC(=O)[C@H](CC(C)C)OC(=O)[C@H](Cc2ccccc2)N(C)C)[C@H]1Cc1ccccc1 [compound 6]
protease activity reduced relative to untreated controls [1]: ~95%
SmPOP activity after gallinamide treatment [2]: unaffected
decrease in inhibitory potency vs gallinamide A [3]: 3.4 fold
SmCB1 inhibition k2nd [3]: 1930 ± 304 M^–1·s^–1
SmCB1 inhibition k2nd ([3]; listed as Cpd.6): 1930 M^–1·s^–1

CCC(C)C(C(=O)OC(CC(C)C)C(=O)NC(CC(C)C)C(=O)NC(C)C=CC(=O)N1C(=O)C=C(OC)C1Cc1ccccc1)N(C)C (stereo not drawn) [compound 9]
protease activity reduced relative to untreated controls [1]: ~95%
SmPOP activity after gallinamide treatment [2]: unaffected
decrease in inhibitory potency vs gallinamide A [3]: 8.4 fold
SmCB1 inhibition k2nd [3]: 793 ± 75 M^–1·s^–1

CC[C@H](C)[C@@H](C(=O)O[C@@H](CC(C)C)C(=O)N[C@@H](CC(C)C)C(=O)N[C@@H](C)/C=C/C(=O)N1C(=O)C=C(OC)[C@@H]1C)N(C)C [gallinamide A]
protease activity reduced relative to untreated controls [1]: ~95%
SmPOP activity after gallinamide treatment [2]: unaffected
SmCB1 inhibition k2nd [3]: 6644 M^–1·s^–1 and 6644 ± 532 M^–1·s^–1
SmCB1 inhibition k2nd ([3]; listed as Gallinamide A): 6644 M^–1·s^–1
